Data on twelve compounds can be found in patent US20240116985A1, “STAPLED PEPTIDES AND METHODS THEREOF” (priority 2020, published 2024).

≈ marks a conversion by molar mass, not a printed value. Like-named read-outs stand apart in the source and are kept apart here.

Data set [1] addresses T1, full-length beta-Catenin (Uniprot ID P35222) (Homo sapiens, UniProt P35222).
T1 construct: 10 nM full-length beta-Catenin (Uniprot ID P35222)
T1 sequence (P35222 1-781): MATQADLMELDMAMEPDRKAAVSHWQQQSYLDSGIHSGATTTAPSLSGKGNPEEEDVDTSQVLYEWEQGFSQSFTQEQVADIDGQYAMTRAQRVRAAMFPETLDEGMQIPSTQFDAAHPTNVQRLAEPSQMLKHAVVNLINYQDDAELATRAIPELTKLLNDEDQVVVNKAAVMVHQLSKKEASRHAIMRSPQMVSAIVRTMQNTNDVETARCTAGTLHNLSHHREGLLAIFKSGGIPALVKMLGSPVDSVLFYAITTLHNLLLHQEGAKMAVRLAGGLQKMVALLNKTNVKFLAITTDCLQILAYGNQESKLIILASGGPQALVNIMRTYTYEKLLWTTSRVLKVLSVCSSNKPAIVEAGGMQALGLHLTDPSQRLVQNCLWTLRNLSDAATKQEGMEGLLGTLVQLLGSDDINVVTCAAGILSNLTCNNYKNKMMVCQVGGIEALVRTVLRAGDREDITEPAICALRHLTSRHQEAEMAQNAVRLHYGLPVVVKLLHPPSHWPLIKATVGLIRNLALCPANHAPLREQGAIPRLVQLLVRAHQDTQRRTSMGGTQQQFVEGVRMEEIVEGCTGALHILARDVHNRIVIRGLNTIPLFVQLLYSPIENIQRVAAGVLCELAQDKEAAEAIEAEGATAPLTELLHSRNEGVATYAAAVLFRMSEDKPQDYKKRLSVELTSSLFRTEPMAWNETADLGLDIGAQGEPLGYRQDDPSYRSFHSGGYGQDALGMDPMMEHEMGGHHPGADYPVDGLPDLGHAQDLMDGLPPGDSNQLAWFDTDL
As to the kind of experiment: Fluorescence polarization IC50 (beta-catenin / 5FAM-TCF4 10-53 competition). The class given is binding. Particulars: fluorescence polarization; read-out: beta-Catenin FP IC50.

The next data set in a line: Solubility in PBS. The class given is physicochemical. The essentials: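 Read-out is the HPLC peak area of the supernatant from ultracentrifuged PBS solution, scaled against a 50 μM peptide DMSO injection; value reported as [(PBS area)/(DMSO area)]*50 uM.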
The target of data set [2] is T2, beta-catenin/TCF4 engagement (Homo sapiens, UniProt P35222).
T2 construct: expressed in transfected cells; host or cells: HEK293
T2 sequence (P35222 1-781): T1 sequence (P35222 1-781)
Briefly: Nano-BRET target engagement assay (B-cat-Halo & TCF4-Luc in HEK293 cells). It counts as cell-based. Particulars: absolute IC50; read-out: NanoBRET Abs IC50.

For orientation: IC50 means the concentration that inhibits the measured activity by half. By Solubility is commonly meant the concentration that dissolves in the medium under given conditions. Read a low Solubility as little dissolved substance. In the case of `CC(=O)N1CCC[C@]12CC=CCCCC1(CCCC=CCCCOC(=O)N3CC[C@@](C(=O)N[C@@H](Cc4ccccc4Cl)C(=O)N[C@@H](Cc4csc5ccccc45)C(=O)N[C@H](CO)[C@@H](C)O)(C3)NC(=O)[C@H]([C@@H](C)O)NC(=O)[C@H](Cc3ccccc3)NC(=O)[C@H](C)NC(=O)[C@H](C)NC(=O)[C@H](CC(=O)O)NC(=O)[C@H](CC(=O)O)NC1=O)NC(=O)[C@H](CC1CCCCC1)NC(=O)[C@H](CC(=O)O)NC2=O` (stereo partly drawn) [I-1312, Ac-PL3-Asp-Cha-B5-Asp-Asp-Ala-Ala-Phe-Thr-PyrS2-2C1F-BztA-Thro1], the values for the IC50 in data set [1] and in data set [2] were 14 nM and 16100 nM, respectively. In the data set “Solubility in PBS” (Solubility (uM)), this compound yielded a Solubility of 46 µM (≈ 88.3 µg/mL).

For the compound `CC(=O)N1CCC[C@]12CC=CCCCC1(CCCC=CCCCOC(=O)N3CC[C@@](C(=O)N[C@@H](Cc4ccccc4C(N)=O)C(=O)N[C@@H](Cc4csc5ccccc45)C(=O)N[C@@H](CCC(N)=O)C(N)=O)(C3)NC(=O)[C@H](CC(N)=O)NC(=O)[C@H](Cc3ccccc3)NC(=O)[C@H](C)NC(=O)[C@H](C)NC(=O)[C@H](CC(=O)O)NC(=O)[C@H](CC(=O)O)NC1=O)NC(=O)[C@H](CC(C)(C)C)NC(=O)[C@H](CC(=O)O)NC2=O` (stereo partly drawn) [I-1314, Ac-PL3-Asp-Npg-B5-Asp-Asp-Ala-Ala-Phe-Asn-PyrS2-2cbmF-BztA-Gln-NH2], the IC50 in data set [1] was 9 nM; in data set [2] it was > 20000 nM. Further, in “Solubility in PBS” (Solubility (uM)), the concentration in solution (Solubility) came to 48 µM (≈ 93.8 µg/mL).

For the compound `CC(=O)N1CCC[C@]12CC=CCCCC1(CCCC=CCCCOC(=O)N3CC[C@@](C(=O)N[C@@H](Cc4ccccc4C(N)=O)C(=O)N[C@@H](Cc4csc5ccccc45)C(=O)N[C@@H](CCC(N)=O)C(N)=O)(C3)NC(=O)[C@H](CC(C)C)NC(=O)[C@H](Cc3ccccc3)NC(=O)[C@H](C)NC(=O)[C@H](C)NC(=O)[C@H](CC(=O)O)NC(=O)[C@H](CC(=O)O)NC1=O)NC(=O)[C@H](CC(C)(C)C)NC(=O)[C@H](CC(=O)O)NC2=O` (stereo partly drawn) [I-1315, Ac-PL3-Asp-Npg-B5-Asp-Asp-Ala-Ala-Phe-Leu-PyrS2-2cbmF-BztA-Gln-NH2], the IC50 in data set [1] worked out at 13 nM; in data set [2], 7200 nM. Besides, the “Solubility” value in “Solubility in PBS” worked out at 10 µM (≈ 19.5 µg/mL).

In the case of `CC(=O)N1CCC[C@]12CC=CCCCC1(CCCC=CCCCOC(=O)N3CC[C@@](C(=O)N[C@@H](Cc4ccccc4C(N)=O)C(=O)N[C@@H](Cc4csc5ccccc45)C(=O)N[C@@H](CCC(N)=O)C(N)=O)(C3)NC(=O)[C@H](Cc3ccccc3)NC(=O)[C@H](Cc3ccccc3)NC(=O)[C@H](C)NC(=O)[C@H](C)NC(=O)[C@H](CC(=O)O)NC(=O)[C@H](CC(=O)O)NC1=O)NC(=O)[C@H](CC(C)(C)C)NC(=O)[C@H](CC(=O)O)NC2=O` (stereo partly drawn) [I-1316, Ac-PL3-Asp-Npg-B5-Asp-Asp-Ala-Ala-Phe-Phe-PyrS2-2cbmF-BztA-Gln-NH2], the values for the IC50 in data set [1] and in data set [2] were 11 nM and 6800 nM, respectively. For the same compound, the Solubility in the data set “Solubility in PBS” (Solubility (uM)) came out at 48 µM (≈ 95.4 µg/mL).

For the compound `CC(=O)N1CCC[C@]12CC=CCCCC1(CCCC=CCCCOC(=O)N3CC[C@@](C(=O)N[C@@H](Cc4ccccc4C(F)(F)F)C(=O)N[C@@H](Cc4csc5ccccc45)C(=O)N[C@@H](CCC(N)=O)C(N)=O)(C3)NC(=O)[C@H](CC(N)=O)NC(=O)[C@H](Cc3ccccc3)NC(=O)[C@H](C)NC(=O)[C@H](C)NC(=O)[C@H](CC(=O)O)NC(=O)[C@H](CC(=O)O)NC1=O)NC(=O)[C@H](CC(C)(C)C)NC(=O)[C@H](CC(=O)O)NC2=O` (stereo partly drawn) [I-1317, Ac-PL3-Asp-Npg-B5-Asp-Asp-Ala-Ala-Phe-Asn-PyrS2-2F3MeF-BztA-Gln-NH2], the IC50 in data set [1] stood at 9 nM; in data set [2], 9700 nM. Also, the Solubility in “Solubility in PBS” (Solubility (uM)) amounted to 49 µM (≈ 97 µg/mL).

`CC(=O)N1CCC[C@]12CC=CCCCC1(CCCC=CCCCOC(=O)N3CC[C@@](C(=O)N[C@@H](Cc4ccccc4F)C(=O)N[C@@H](Cc4csc5ccccc45)C(=O)N[C@@H](CCC(N)=O)C(N)=O)(C3)NC(=O)[C@H](CC(N)=O)NC(=O)[C@H](Cc3ccccc3)NC(=O)[C@H](C)NC(=O)[C@H](C)NC(=O)[C@H](CC(=O)O)NC(=O)[C@H](CC(=O)O)NC1=O)NC(=O)[C@H](CC(C)(C)C)NC(=O)[C@H](CC(=O)O)NC2=O` (stereo partly drawn) [I-1320, Ac-PL3-Asp-Npg-B5-Asp-Asp-Ala-Ala-Phe-Asn-PyrS2-2FF-BztA-Gln-NH2]: the IC50 in data set [1] amounted to 10 nM; in data set [2], 26200 nM. Besides, the concentration in solution in the data set “Solubility in PBS” (Solubility (uM)) (Solubility) came to 44 µM (≈ 84.9 µg/mL).

Consider `CC(=O)N1CCC[C@]12CC=CCCCC1(CCCC=CCCCOC(=O)N3CC[C@@](C(=O)N[C@@H](Cc4ccccc4F)C(=O)N[C@@H](Cc4csc5ccccc45)C(=O)N[C@@H](CCC(N)=O)C(N)=O)(C3)NC(=O)[C@H](CC(C)C)NC(=O)[C@H](Cc3ccccc3)NC(=O)[C@H](C)NC(=O)[C@H](C)NC(=O)[C@H](CC(=O)O)NC(=O)[C@H](CC(=O)O)NC1=O)NC(=O)[C@H](CC(C)(C)C)NC(=O)[C@H](CC(=O)O)NC2=O` (stereo partly drawn) [I-1321, Ac-PL3-Asp-Npg-B5-Asp-Asp-Ala-Ala-Phe-Leu-PyrS2-2FF-BztA-Gln-NH2], for which the figures for the IC50 in data set [1] and in data set [2] were 8 nM and 10900 nM, respectively. Also, in “Solubility in PBS” (Solubility (uM)), the concentration in solution (Solubility) was 48 µM (≈ 92.6 µg/mL).

On to `CC(=O)N1CCC[C@]12CC=CCCCC1(CCCC=CCCCOC(=O)N3CC[C@@](C(=O)N[C@@H](Cc4ccccc4F)C(=O)N[C@@H](Cc4csc5ccccc45)C(=O)N[C@@H](CCC(N)=O)C(N)=O)(C3)NC(=O)[C@H](Cc3ccccc3)NC(=O)[C@H](Cc3ccccc3)NC(=O)[C@H](C)NC(=O)[C@H](C)NC(=O)[C@H](CC(=O)O)NC(=O)[C@H](CC(=O)O)NC1=O)NC(=O)[C@H](CC(C)(C)C)NC(=O)[C@H](CC(=O)O)NC2=O` (stereo partly drawn) [I-1322, Ac-PL3-Asp-Npg-B5-Asp-Asp-Ala-Ala-Phe-Phe-PyrS2-2FF-BztA-Gln-NH2], for which the values for the IC50 in data set [1] and in data set [2] were 11 nM and 9100 nM, respectively. The compound also returned a Solubility in the data set “Solubility in PBS” (Solubility (uM)) of 33 µM (≈ 64.8 µg/mL).

Regarding `CC(=O)N1CCC[C@]12CC=CCCCC1(CCCC=CCCCOC(=O)N3CC[C@@](C(=O)N[C@@H](Cc4ccccc4Br)C(=O)N[C@@H](Cc4csc5ccccc45)C(=O)N[C@@H](CCC(N)=O)C(N)=O)(C3)NC(=O)[C@H](CC(N)=O)NC(=O)[C@H](Cc3ccccc3)NC(=O)[C@H](C)NC(=O)[C@H](C)NC(=O)[C@H](CC(=O)O)NC(=O)[C@H](CC(=O)O)NC1=O)NC(=O)[C@H](CC(C)(C)C)NC(=O)[C@H](CC(=O)O)NC2=O` (stereo partly drawn) [I-1323, Ac-PL3-Asp-Npg-B5-Asp-Asp-Ala-Ala-Phe-Asn-PyrS2-2BrF-BztA-Gln-NH2], the IC50 came out at 6 nM in data set [1] and 11700 nM in data set [2]. In the data set “Solubility in PBS” (Solubility (uM)), this compound showed a Solubility of 48 µM (≈ 95.6 µg/mL).

With `CC(=O)N1CCC[C@]12CC=CCCCC1(CCCC=CCCCOC(=O)N3CC[C@@](C(=O)N[C@@H](Cc4ccsc4)C(=O)N[C@@H](Cc4csc5ccccc45)C(=O)N[C@@H](CCC(N)=O)C(N)=O)(C3)NC(=O)[C@H](Cc3ccccc3C(F)(F)F)NC(=O)[C@H](Cc3ccccc3)NC(=O)[C@H](C)NC(=O)[C@H](C)NC(=O)[C@H](CC(=O)O)NC(=O)[C@H](CC(=O)O)NC1=O)NC(=O)[C@H](CC(C)(C)C)NC(=O)[C@H](CC(=O)O)NC2=O` (stereo partly drawn) [I-1363, Ac-PL3-Asp-Npg-B5-Asp-Asp-Ala-Ala-Phe-2F3MeF-PyrS2-3Thi-BztA-Gln-NH2], the IC50 was determined as 9 nM in data set [1] and 5500 nM in data set [2]. The Solubility in “Solubility in PBS” (Solubility (uM)) came to 12 µM (≈ 24.2 µg/mL).

Turning to `CC(=O)N1CCC[C@]12CC=CCCCC1(CCCC=CCCCOC(=O)N3CC[C@@](C(=O)N[C@@H](Cc4ccsc4)C(=O)N[C@@H](Cc4csc5ccccc45)C(=O)N[C@@H](CCC(N)=O)C(N)=O)(C3)NC(=O)[C@H](Cc3cccc(C(F)(F)F)c3)NC(=O)[C@H](Cc3ccccc3)NC(=O)[C@H](C)NC(=O)[C@H](C)NC(=O)[C@H](CC(=O)O)NC(=O)[C@H](CC(=O)O)NC1=O)NC(=O)[C@H](CC(C)(C)C)NC(=O)[C@H](CC(=O)O)NC2=O` (stereo partly drawn) [I-1364, Ac-PL3-Asp-Npg-B5-Asp-Asp-Ala-Ala-Phe-3F3MeF-PyrS2-3Thi-BztA-Gln-NH2], the IC50 came out at 9 nM in data set [1] and 10500 nM in data set [2]. In “Solubility in PBS” (Solubility (uM)), the Solubility is 17 µM (≈ 34.3 µg/mL).

On to `CC(=O)N1CCC[C@]12CC=CCCCC1(CCCC=CCCCOC(=O)N3CC[C@@](C(=O)N[C@@H](Cc4ccsc4)C(=O)N[C@@H](Cc4csc5ccccc45)C(=O)N[C@@H](CCC(N)=O)C(N)=O)(C3)NC(=O)[C@H](Cc3ccc(C(F)(F)F)cc3)NC(=O)[C@H](Cc3ccccc3)NC(=O)[C@H](C)NC(=O)[C@H](C)NC(=O)[C@H](CC(=O)O)NC(=O)[C@H](CC(=O)O)NC1=O)NC(=O)[C@H](CC(C)(C)C)NC(=O)[C@H](CC(=O)O)NC2=O` (stereo partly drawn) [I-1365, Ac-PL3-Asp-Npg-B5-Asp-Asp-Ala-Ala-Phe-4F3MeF-PyrS2-3Thi-BztA-Gln-NH2], for which the results for the IC50 in data set [1] and in data set [2] were 9 nM and 9700 nM, respectively. Also, the concentration in solution in the data set “Solubility in PBS” (Solubility (uM)) (Solubility) came to 22 µM (≈ 44.4 µg/mL).
